Consider seven compounds from PMC8350020, “Stepwise binding of inhibitors to human cytochrome P450 17A1 and rapid kinetics of inhibition of androgen biosynthesis” (The Journal of Biological Chemistry, 2021).

Read-outs that look alike come from different tables or passages of the source.

The test system of data set [1] is human P450 17A1. As to conditions: read-out: IC50, progesterone 17α-hydroxylation, cited from earlier work.
Data set [2] deals with human P450 17A1. The conditions noted are these: cited from earlier work; for IC50: read-out: IC50, 17α-OH pregnenolone to DHEA (lyase).
Data set [3] concerns the target T1, human P450 17A1 (Homo sapiens, UniProt P05093).
T1 sequence (P05093 24-508 limits assumed): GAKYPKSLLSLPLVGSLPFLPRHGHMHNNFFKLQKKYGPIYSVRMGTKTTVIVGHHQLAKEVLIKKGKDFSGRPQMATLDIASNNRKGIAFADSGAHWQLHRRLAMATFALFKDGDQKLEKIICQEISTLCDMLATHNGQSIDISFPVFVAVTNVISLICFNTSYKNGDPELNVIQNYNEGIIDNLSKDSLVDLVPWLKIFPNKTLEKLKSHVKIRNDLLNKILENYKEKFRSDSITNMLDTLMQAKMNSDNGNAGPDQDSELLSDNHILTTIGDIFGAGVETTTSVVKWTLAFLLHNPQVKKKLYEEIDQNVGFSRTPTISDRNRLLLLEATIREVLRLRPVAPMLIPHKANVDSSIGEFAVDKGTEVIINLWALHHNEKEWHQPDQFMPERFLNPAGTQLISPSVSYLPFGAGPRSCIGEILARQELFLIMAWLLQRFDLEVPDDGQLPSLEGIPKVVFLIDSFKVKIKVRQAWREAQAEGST
In words: IC50 determination, progesterone 17α-hydroxylation (17α-OH progesterone formation), reconstituted P450 17A1/POR/b5. The class given is biochemical. The conditions noted are these: for IC50: IC50 (95% CI limits), progesterone 17α-hydroxylation, steady-state, 0.02 μM P450 17A1, 5 μM progesterone, 37 °C; for Ki: IC50 = Ki [1 + (S/Km)] for competitive inhibition, Km from Ref. 37, read-out: Predicted Ki, progesterone 17α-hydroxylation. On the procedure: (§1) A 0.5 ml reaction was prepared in most cases by the reconstitution of P450 17A1 (0.02 μM), POR (0.5 μM), and b5 (0.5 μM) with freshly sonicated L-α-dilauroyl-sn-glycero-3-phosphocholine (30 μM). The mixture incubated on ice for 10 min, followed by the addition of potassium phosphate buffer (to a final concentration of 50 mM), substrate (5 μM progesterone or 1.5 μM 17α-OH pregnenolone ([37])), and water. Stock progesterone was prepared in CH3OH and was diluted to a final concentration of 5 μM (0.5% CH3OH, v/v). […] Reactions (in duplicate) were preincubated for 5 min at 37 °C with shaking before being initiated with an NADPH-generating system composed of 0.5 mM NADP^+, two units of yeast glucose 6-phosphate dehydrogenase ml^−1, and 10 mM glucose 6-phosphate ([56]). The inhibitor abiraterone was added immediately prior to the 5-min preincubation stage because of the rapid onset of inhibition. Reactions (5 min) were quenched by immersion in an ice bath, with the addition of CH2Cl2 (2.0 ml), and were centrifuged (10^3g, 10 min) to separate layers. The organic (bottom) phases were removed (1.6 ml) and transferred into clean vials, and the solvent was removed under a stream of nitrogen. Reactions were resuspended in a CH3CN/sodium acetate mixture (25 mM, pH 3.7) (1:1, v/v) and were transferred to vials for UPLC analysis. […] Substrate and product were detected using a Waters Acuity photodiode array system at 240 nm. Data were processed using the MassLynx software, and percent conversion of substrate to product was calculated. The data were normalized to the uninhibited reaction, which was set at 100% activity.

In data set [4] the target is T1, human P450 17A1. In words: IC50 determination, 17α-OH pregnenolone lyase activity (DHEA formation), reconstituted P450 17A1/POR/b5. Type of data set: biochemical. The conditions noted are these: for Ki: IC50 = Ki [1 + (S/Km)] for competitive inhibition, Km from Ref. 37, read-out: Predicted Ki, 17α-OH pregnenolone lyase; for Ratio (17-hydroxylation/lyase) of IC50: This work. The protocol:
In the case of catalytic assays, the products of each reaction were redissolved in a solution of CF3CO2H (7 mM, prepared as a 0.1% v/v solution in C2H5OH) and dansyl hydrazine (10 mM, prepared in CH3OH) in amber glass vials (sealed and capped) and were allowed to react overnight (16 h) in the dark at room temperature (23 °C). The reaction was quenched with acetone (50 mM) followed by incubation at room temperature for 30 min. NaOH was added to 100 mM, and the products of the reactions were extracted into CH2Cl2 (1.0 ml), of which 0.8 ml of the organic (lower) layers was transferred to fresh amber vials and dried under a stream of nitrogen. The residues were redissolved in a mixture of a 0.1% HCO2H solution (aqueous) and CH3CN (0.1 ml; 1:1 dilution, v/v) and transferred to ultra performance LC (UPLC) vials for analysis. […] Data were processed using MassLynx software (Waters) (Fig. S5).
as §1
Experimental conditions for the lyase reaction were identical to the hydroxylation reaction with the following exceptions: 17α-OH pregnenolone (1.5 μM) was used as the substrate, and following extraction, the product of the reaction was derivatized with dansyl hydrazine as described previously.

For data set [5], the target named is T1, human P450 17A1. The data set is described as follows: Rates of onset of inhibition, pre-steady-state rapid chemical quench. Type of data set: biochemical.
Description: In the control experiment, ES is not inhibited (no I present). […] Both progesterone 17α-hydroxylation (Fig. 10) and 17α-OH pregnenolone lyase activity (Fig. 11) were measured without and with all five inhibitors.
Reactions were performed using a KinTek RQF-3 rapid quench apparatus (KinTek) with the reaction loop set at position 7 and the temperature at 37 °C. The RQF-3 is a rapid mixing device that initiates a reaction by forcing equal volumes of two mixing syringes into a reaction loop. After pausing for the indicated incubation time, the reaction is then quenched and expelled from the apparatus. The reaction mixture (containing enzyme and substrate [in CH3OH, 1% (v/v)]) was initiated with an equal volume (19 μl) of NADPH solution (2 mM), effectively halving the initial concentration of all reaction components. When appropriate, inhibitor (in CH3OH) was added to the NADPH solution (in CH3OH), taking care to keep the total CH3OH composition of the final reaction to 1% (v/v). The substrates progesterone (5 μM) and 17α-OH pregnenolone (1.5 μM) were allowed to react for different lengths of time (0.1–5 and 2–60 s, respectively) prior to quenching with 160 μl of 1 M HCl. Five replicates of each time point were collected into vials to increase the detection sensitivity of the respective product at the shorter time points.
Data set [6] deals with T2, human P450 17A1 (Homo sapiens, UniProt P05093).
T2 sequence (P05093 1-508): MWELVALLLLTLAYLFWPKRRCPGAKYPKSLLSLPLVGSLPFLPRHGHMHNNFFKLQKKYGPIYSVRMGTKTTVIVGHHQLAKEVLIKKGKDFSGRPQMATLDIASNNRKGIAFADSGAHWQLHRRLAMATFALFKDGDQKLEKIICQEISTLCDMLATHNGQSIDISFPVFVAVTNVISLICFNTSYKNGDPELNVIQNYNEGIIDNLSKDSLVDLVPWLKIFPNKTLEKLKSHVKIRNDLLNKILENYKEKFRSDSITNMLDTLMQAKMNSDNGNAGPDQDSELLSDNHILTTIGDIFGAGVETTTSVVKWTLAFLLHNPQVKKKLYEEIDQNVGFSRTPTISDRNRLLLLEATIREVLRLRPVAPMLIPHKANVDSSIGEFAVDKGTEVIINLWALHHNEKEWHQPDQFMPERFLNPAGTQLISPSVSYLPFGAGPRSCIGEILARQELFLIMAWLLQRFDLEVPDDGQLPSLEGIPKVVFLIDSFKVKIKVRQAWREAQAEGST
The data set is described as follows: Inhibition as a function of preincubation time with abiraterone, CYP17A1R Bactosomes. The class given is biochemical. The conditions noted are these: 50 nM abiraterone, 10 nM P450 17A1 Bactosomes.
Description: These experiments utilized bacterial membranes (CYP17A1R Bactosomes) as the source of P450 and POR. Experiments were done with 10 nM P450 17A1 in reaction volumes of 0.5 ml, with 100 nM b5 added. Abiraterone was added to 50 nM, and then, the reactions were initiated by the addition of an NADPH-generating system supplemented with either 20 μM progesterone (A) or 17α-OH pregnenolone (B) at the indicated times and proceeded for 5 min (at 37 and 23 °C, respectively).
Steady-state kinetic inhibition assays performed with Cypex CYP17A1R Bactosomes followed largely the same procedure with the following exception: the enzymatic system was prepared by preincubating (23 °C) P450 17A1 (CYP17A1R Bactosomes; 10 nM P450), b5 (100 nM), and potassium phosphate buffer (50 mM, pH 7.4) with abiraterone (50 nM) for varying lengths of time (0.25–30 min). Reactions (5 min) were then initiated with the NADPH-generating system described previously and subjected to the same procedure.

Data set [7] deals with T1, human P450 17A1. In words: KinTek Explorer modeling of kinetics of inhibition of progesterone 17α-hydroxylation. The class given is biochemical. The conditions noted are these: fit of Figure 10E data; E 2 μM, S 5 μM progesterone, I 1 μM; read-out: Kd as a competitive inhibitor (value giving adequate model fits).
Description: The results of the progesterone 17α-hydroxylation abiraterone inhibition experiment in Figure 10E were analyzed further using KinTek Explorer software (KinTek; Fig. 13).
The lines were fit to the model shown, with the indicated rate and dissociation constants. The enzyme concentration (E) was 2 μM, substrate concentration (S) was 5 μM, and inhibitor concentration (I, abiraterone) was 1 μM. Fitting was done with KinTek Explorer.
Data set [8] addresses T1, human P450 17A1.
The next data set has as its system P450 17A1. The conditions noted are these: cited from earlier work.
The target in data set [9] is T1, human P450 17A1. As to conditions: 250 nM P450 17A1 and 250 nM inhibitor, 23 °C.
Setting [10] is: IC50 (95% CI limits), 17α-OH pregnenolone lyase, steady-state, 0.02 μM P450 17A1, 1.5 μM 17α-OH pregnenolone, 37 °C.
Setting [11] is: range of other studies, ref Other studies (2) Petrunak et al. 2017.

Take `CC(C)[C@@](O)(c1ccc2cc(OC(F)F)c(OC(F)F)cc2c1)c1cn[nH]n1` [(R)-Seviteronel]: the IC50 in the data set with human P450 17A1 [1] (ref (2) Petrunak et al. 2017) is 11300 nM. In addition, in the data set with human P450 17A1 [2] (ref (2) Petrunak et al. 2017), the “Ratio (17-hydroxylation/lyase) of IC50” value was 2.3 and the IC50 was 5000 nM.
For `C[C@]12CC[C@H](O)CC1=CC[C@@H]1[C@@H]2CC[C@]2(C)C(c3cccnc3)=CC[C@@H]12` [Abiraterone, 17-(3-pyridyl)androsta-5,16-dien-3β-ol], the IC50 at human P450 17A1 [3] is 3.2 nM; at human P450 17A1 [4] (setting [10]) it was 4.2 nM; with human P450 17A1 [1] (ref (2) Petrunak et al. 2017), 76 nM; with human P450 17A1 [2] (setting [11]), 2.9 to 800 nM; in the data set on human P450 17A1 [2] (ref (2) Petrunak et al. 2017) it was 36 nM. The Ki at human P450 17A1 [3] was 1.3 nM; on human P450 17A1 [4], 3.4 nM. Further, the “Ratio (17-hydroxylation/lyase) of IC50” value is on record as 0.76 at human P450 17A1 [4], 0.1-1.4 in the data set on human P450 17A1 [2] (setting [11]) and 2.1 in the data set on human P450 17A1 [2] (ref (2) Petrunak et al. 2017). Besides, the “Time within which inhibition occurred” value on human P450 17A1 [5] (Figs. 10, 11 and 13) is listed as “less than 1 s”. Besides, the “Earliest time points at which inhibition was noted” value at human P450 17A1 [5] (progesterone 17α-hydroxylation, 1 μM abiraterone, 2 μM P450) is no more than 100 ms. Besides, the “Inhibition of 17α-OH pregnenolone lyase versus preincubation time” value at human P450 17A1 [6] (100 nM b5, 20 μM 17α-OH pregnenolone, 23 °C) is “almost completely inhibited after 15 s”. In addition, the “Inhibition of progesterone 17α-hydroxylation versus preincubation time” value on human P450 17A1 [6] (100 nM b5, 20 μM progesterone, 37 °C) was “almost completely inhibited after 15 s”. On human P450 17A1 [7], the Kd is 1 nM. The “Further spectral changes after formation of final complex” value at human P450 17A1 [8] (2 μM P450 17A1 and 2 μM abiraterone, spectra 1 to 57 min after mixing) is reported as “no further spectral changes were observed over a period of 1 h”. Also, the koff in the data set on P450 17A1 is 0.000155 s⁻¹. Besides, the “t1/2 (from koff)” value in the data set with P450 17A1 is on record as 5 h.
With `Clc1ccccc1C(c1ccccc1)(c1ccccc1)n1ccnc1` [Clotrimazole], the IC50 against human P450 17A1 [3] was 60 nM; at human P450 17A1 [4] (setting [10]) it was 99 nM; in the data set on human P450 17A1 [1] (ref (5) Munkboel et al. 2019), 180 nM; with human P450 17A1 [2] (ref (5) Munkboel et al. 2019) it was 56 nM. In addition, the results for the Ki on human P450 17A1 [3] and on human P450 17A1 [4] were 23 nM and 81 nM, respectively. The “Ratio (17-hydroxylation/lyase) of IC50” value is on record as 0.61 at human P450 17A1 [4] and 3.3 in the data set with human P450 17A1 [2] (ref (5) Munkboel et al. 2019). Besides, the “Time required for completion of spectral changes on binding” value on human P450 17A1 [8] (2 μM P450 17A1 mixed with inhibitor, 23 °C) is roughly 30 s. Also, the “Lag in recovery of 17α-OH pregnenolone lyase from 1:1 inhibitor complex” value at human P450 17A1 [9] (20 μM 17α-OH pregnenolone) was “Any suggestion of lags is no greater than in the uninhibited reactions”. Besides, the “Lag in recovery of progesterone 17α-hydroxylation from 1:1 inhibitor complex” value on human P450 17A1 [9] (20 μM progesterone) was “Any suggestion of lags is no greater than in the uninhibited reactions”.
Turning to `C[C@]12CC[C@H](O)CC1=CC[C@@H]1[C@@H]2CC[C@]2(C)C(n3cnc4ccccc43)=CC[C@@H]12` [Galaterone], the IC50 in the data set on human P450 17A1 [1] (ref (2) Petrunak et al. 2017) is 130 nM. In the data set on human P450 17A1 [2] (ref (2) Petrunak et al. 2017), the “Ratio (17-hydroxylation/lyase) of IC50” value was 1.3 and the IC50 is 100 nM.
Consider `CC(C)[C@](O)(c1ccc2cc(OC(F)F)c(OC(F)F)cc2c1)c1c[nH]nn1` [Seviteronel, (S)-Seviteronel], for which the IC50 at human P450 17A1 [3] is 3500 nM; against human P450 17A1 [4] (setting [10]) it was 3430 nM; on human P450 17A1 [4] (This work (Fig. 3, Table 1), read-out: IC50, 17α-OH pregnenolone to DHEA (lyase)), 3400 nM; in the data set on human P450 17A1 [1] (ref (2) Petrunak et al. 2017), 1170 nM; with human P450 17A1 [1] (ref (4) Rafferty et al. 2014), 690 nM; with human P450 17A1 [2] (ref (2) Petrunak et al. 2017) it was 430 nM. Besides, the 50% inhibitory concentration (IC50) in the data set with human P450 17A1 [2] (ref (4) Rafferty et al. 2014) was 69 nM. In addition, the Ki at human P450 17A1 [3] was 1370 nM; on human P450 17A1 [4], 2810 nM. Moreover, the “Ratio (17-hydroxylation/lyase) of IC50” value is listed as 1.0 on human P450 17A1 [4], 2.7 in the data set with human P450 17A1 [2] (ref (2) Petrunak et al. 2017) and 10 in the data set on human P450 17A1 [2] (ref (4) Rafferty et al. 2014).
`CC(C)(C)NC(=O)[C@@H]1CN(Cc2cccnc2)CCN1C[C@@H](O)C[C@@H](Cc1ccccc1)C(=O)N[C@H]1c2ccccc2C[C@H]1O` [indinavir]: at human P450 17A1 [8], the “Spectral interaction with P450 17A1” value is listed as “did not show strong enough spectral interaction”.
On the same count and under the same terms, in the case of `CCC(C)n1ncn(-c2ccc(N3CCN(c4ccc(OCC5COC(Cn6cncn6)(c6ccc(Cl)cc6Cl)O5)cc4)CC3)cc2)c1=O` (stereo not shown) [itraconazole] it was “did not show strong enough spectral interaction”.
